Test results: PubChem BioAssay (NCI)
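96-well plates; 48 h exposure; 5 concentrations. Endpoints by linear interpolation between flanking doses. Not reached: highest tested concentration assigned. Abbreviation: GI50, concentration required for 50% inhibition of growth. TGI marks complete inhibition of growth.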

Assays:
Assay in all cases: inhibition of tumour cell growth, NCI panel, 48 h; in the data active = GI50 below about 0.43 µM; inactive = the rest
786-0 renal = test system: 786-0 renal
A498 renal = test system: A498 renal
A549 NSCLC = test system: A549 NSCLC
ACHN renal = test system: ACHN renal
CAKI-1 renal = test system: CAKI-1 renal
CCRF-CEM leukemia = test system: CCRF-CEM leukemia
COLO 205 colon = test system: COLO 205 colon
DU-145 prostate = test system: DU-145 prostate
EKVX NSCLC = test system: EKVX NSCLC
HCC-2998 colon = test system: HCC-2998 colon
HCT-116 colon = test system: HCT-116 colon
HCT-15 colon = test system: HCT-15 colon
HL-60(TB) leukemia = test system: HL-60(TB) leukemia
HOP-62 NSCLC = test system: HOP-62 NSCLC
HOP-92 NSCLC = test system: HOP-92 NSCLC
HS 578T breast = test system: HS 578T breast
IGROV1 ovarian = test system: IGROV1 ovarian
K-562 leukemia = test system: K-562 leukemia
KM12 colon = test system: KM12 colon
LOX IMVI melanoma = test system: LOX IMVI melanoma
M14 melanoma = test system: M14 melanoma
MALME-3M melanoma = test system: MALME-3M melanoma
MCF7 breast = test system: MCF7 breast
MDA-MB-231 breast = test system: MDA-MB-231 breast
MDA-MB-435 = test system: MDA-MB-435
MOLT-4 leukemia = test system: MOLT-4 leukemia
NCI-H226 lung = test system: NCI-H226 lung
NCI-H23 lung = test system: NCI-H23 lung
NCI-H460 lung = test system: NCI-H460 lung
NCI/ADR-RES ovarian = test system: NCI/ADR-RES ovarian
OVCAR-3 ovarian = test system: OVCAR-3 ovarian
OVCAR-4 ovarian = test system: OVCAR-4 ovarian
OVCAR-5 ovarian = test system: OVCAR-5 ovarian
OVCAR-8 ovarian = test system: OVCAR-8 ovarian
PC-3 prostate = test system: PC-3 prostate
RPMI-8226 leukemia = test system: RPMI-8226 leukemia
RXF 393 renal = test system: RXF 393 renal
SF-268 CNS = test system: SF-268 CNS
SF-295 CNS = test system: SF-295 CNS
SF-539 CNS = test system: SF-539 CNS
SK-MEL-28 melanoma = test system: SK-MEL-28 melanoma
SK-MEL-5 melanoma = test system: SK-MEL-5 melanoma
SK-OV-3 ovarian = test system: SK-OV-3 ovarian
SN12C renal = test system: SN12C renal
SNB-19 CNS = test system: SNB-19 CNS
SNB-75 CNS = test system: SNB-75 CNS
SR leukemia = test system: SR leukemia
SW-620 colon = test system: SW-620 colon
T-47D breast = test system: T-47D breast
U251 CNS = test system: U251 CNS
UACC-257 melanoma = test system: UACC-257 melanoma
UACC-62 melanoma = test system: UACC-62 melanoma
UO-31 renal = test system: UO-31 renal

CC(C)COc1nc2c(c(=O)n(C)c(=O)n2C)n1C
> 100 µM: TGI (786-0 renal) | TGI (A498 renal) | TGI (A549 NSCLC) | TGI (ACHN renal) | TGI (CAKI-1 renal) | TGI (CCRF-CEM leukemia) | TGI (COLO 205 colon) | TGI (DU-145 prostate) | TGI (EKVX NSCLC) | TGI (HCC-2998 colon) | TGI (HCT-116 colon) | TGI (HCT-15 colon) | TGI (HL-60(TB) leukemia) | TGI (HOP-62 NSCLC) | TGI (HOP-92 NSCLC) | TGI (HS 578T breast) | TGI (IGROV1 ovarian) | TGI (K-562 leukemia) | TGI (KM12 colon) | TGI (LOX IMVI melanoma) | TGI (M14 melanoma) | TGI (MALME-3M melanoma) | TGI (MCF7 breast) | TGI (MDA-MB-231 breast) | TGI (MDA-MB-435) | TGI (MOLT-4 leukemia) | TGI (NCI-H226 lung) | TGI (NCI-H23 lung) | TGI (NCI-H460 lung) | TGI (NCI/ADR-RES ovarian) | TGI (OVCAR-3 ovarian) | TGI (OVCAR-4 ovarian) | TGI (OVCAR-5 ovarian) | TGI (OVCAR-8 ovarian) | TGI (PC-3 prostate) | TGI (RPMI-8226 leukemia) | TGI (RXF 393 renal) | TGI (SF-268 CNS) | TGI (SF-295 CNS) | TGI (SF-539 CNS) | TGI (SK-MEL-28 melanoma) | TGI (SK-MEL-5 melanoma) | TGI (SK-OV-3 ovarian) | TGI (SN12C renal) | TGI (SNB-19 CNS) | TGI (SNB-75 CNS) | TGI (SR leukemia) | TGI (SW-620 colon) | TGI (T-47D breast) | TGI (U251 CNS) | TGI (UACC-257 melanoma) | TGI (UACC-62 melanoma) | TGI (UO-31 renal)
inactive: GI50 (786-0 renal) > 100 µM | GI50 (A498 renal) > 100 µM | GI50 (A549 NSCLC) > 100 µM | GI50 (ACHN renal) > 100 µM | GI50 (CAKI-1 renal) 18.2 µM | GI50 (CCRF-CEM leukemia) > 100 µM | GI50 (COLO 205 colon) > 100 µM | GI50 (DU-145 prostate) > 100 µM | GI50 (EKVX NSCLC) > 100 µM | GI50 (HCC-2998 colon) > 100 µM | GI50 (HCT-116 colon) > 100 µM | GI50 (HCT-15 colon) > 100 µM | GI50 (HL-60(TB) leukemia) > 100 µM | GI50 (HOP-62 NSCLC) > 100 µM | GI50 (HOP-92 NSCLC) > 100 µM | GI50 (HS 578T breast) 64.1 µM | GI50 (IGROV1 ovarian) 0.544 µM | GI50 (K-562 leukemia) > 100 µM | GI50 (KM12 colon) > 100 µM | GI50 (LOX IMVI melanoma) > 100 µM | GI50 (M14 melanoma) > 100 µM | GI50 (MALME-3M melanoma) > 100 µM | GI50 (MCF7 breast) > 100 µM | GI50 (MDA-MB-231 breast) > 100 µM | GI50 (MDA-MB-435) > 100 µM | GI50 (MOLT-4 leukemia) > 100 µM | GI50 (NCI-H226 lung) > 100 µM | GI50 (NCI-H23 lung) > 100 µM | GI50 (NCI-H460 lung) > 100 µM | GI50 (NCI/ADR-RES ovarian) > 100 µM | GI50 (OVCAR-3 ovarian) > 100 µM | GI50 (OVCAR-4 ovarian) > 100 µM | GI50 (OVCAR-5 ovarian) > 100 µM | GI50 (OVCAR-8 ovarian) > 100 µM | GI50 (PC-3 prostate) > 100 µM | GI50 (RPMI-8226 leukemia) > 100 µM | GI50 (RXF 393 renal) > 100 µM | GI50 (SF-268 CNS) > 100 µM | GI50 (SF-295 CNS) > 100 µM | GI50 (SF-539 CNS) > 100 µM | GI50 (SK-MEL-28 melanoma) > 100 µM | GI50 (SK-MEL-5 melanoma) > 100 µM | GI50 (SK-OV-3 ovarian) > 100 µM | GI50 (SN12C renal) > 100 µM | GI50 (SNB-19 CNS) > 100 µM | GI50 (SNB-75 CNS) 47 µM | GI50 (SR leukemia) > 100 µM | GI50 (SW-620 colon) > 100 µM | GI50 (T-47D breast) > 100 µM | GI50 (U251 CNS) > 100 µM | GI50 (UACC-257 melanoma) > 100 µM | GI50 (UACC-62 melanoma) > 100 µM | GI50 (UO-31 renal) > 100 µM
